Results reported in patent US20230302140A1, “CONJUGATE OF A SINGLE DOMAIN ANTIBODY, A SAPONIN AND AN EFFECTOR MOLECULE, PHARMACEUTICAL COMPOSITION COMPRISING THE SAME, THERAPEUTIC USE OF SAID PHARMACEUTICAL COMPOSITION” (SAPREME TECHNOLOGIES B.V., priority 2020, published 2023).

Key:
A2058 cells = assay: Cell killing (MTS cell viability) assay; type: cell-based, human
Method: (§1) After treatment the cells were incubated for 72 hr at 37° C. before the cell viability was determined by a MTS-assay, performed according to the manufacturer’s instruction (CellTiter 96® AQueous One Solution Cell Proliferation Assay, Promega). Briefly, the MTS solution was diluted 20× in DMEM without phenol red (PAN-Biotech GmbH) supplemented with 10% FBS. The cells were washed once with 200 µL/PBS well, after which 100 µL diluted MTS solution was added/well. The plate was incubated for approximately 20-30 minutes at 37° C. Subsequently, the OD at 492 nm was measured on a Thermo Scientific Multiskan FC plate reader (Thermo Scientific). For quantification the background signal of ‘medium only’ wells was subtracted from all other wells, before the cell viability percentage of treated/untreated cells was calculated, by dividing the background corrected signal of treated wells over the background corrected signal of the untreated wells (x 100).
(§2) Cells were seeded in a 96 well plate at 5.000-1 0.000 c/w in 100 µL/well and incubated overnight at 37° C. […] The media was removed from the cell culture plate and replaced by 180 µL culture media, followed by the addition of 20 µL treatment-mix/well. […] In the case that endosomal acidification inhibitors (chloroquine (Sigma Aldrich) or bafilomycin A1 (Enzo Life Sciences)) were used, the cell culture media in step 1 of treatment was replaced by 180 µL media containing 1 µM chloroquine or 0.2 µM bafilomycin A1. The plate was incubated for 1 hour at 37° C., before the 10x treatment-mix samples were added. The remaining incubation and treatment steps were performed according to standard procedures known in the field.
(§3) After treatment the cells were incubated for 72 hr at 37° C. before the cell viability was determined by a MTS-assay, performed according to the manufacturer’s instruction (CellTiter 96® AQueous One Solution Cell Proliferation Assay, Promega). Briefly, the MTS solution was diluted 20x in DMEM without phenol red (PAN-Biotech GmbH) supplemented with 10% FBS (PAN-Biotech GmbH). The cells were washed once with 200 µL PBS per well, after which 100 µL diluted MTS solution was added per well. The plate was incubated for approximately 20-30 minutes at 37° C. Subsequently, the optical density at 492 nm was measured on a Thermo Scientific Multiskan FC plate reader (Thermo Scientific). For quantification the background signal of ‘medium only’ wells was subtracted from all other wells, before the ratio of […].

MDA-MB-468 cells = assay: Cell killing (MTS cell viability) assay; type: cell-based, human
Method: as §1, §2, §3

SK-BR-3 cells = assay: Cell killing (MTS cell viability) assay; type: cell-based, human
Method: as §1, §2, §3

CaSki cells = assay: Cell killing (MTS cell viability) assay; type: cell-based, human
Method: as §2, §3

endosomal acidification = assay: Cell viability assay with endosomal acidification inhibitors; type: cell-based; conditions: targeted 2-component system; chloroquine or bafilomycin A1
Method: as §2

HeLa cells = assay: Cell killing (MTS cell viability) assay; type: cell-based, human; conditions: +1500 nM SO1861 (unconjugated)
Method: as §2, §3

JIMT-1 cells = assay: Cell killing (MTS cell viability) assay; type: cell-based, human; conditions: +1500 nM SO1861 (unconjugated)
Method: as §2, §3

human EGFR (human) = human EGFR (human) (UniProt P00533); assay: cell-based or functional assay
[1] = +50 pM VHH-EGFR-dianthin (fixed)
[2] = +50 pM CD71VHH-dianthin (fixed)
[3] = +50 pM VHH-HER2-dianthin (fixed)

For `CC(=O)O[C@H]1[C@H](O[C@@H]2OC[C@@H](O)[C@H](O)[C@H]2O)[C@@H](O)[C@H](O[C@@H]2[C@H](O)[C@@H](O[C@@H]3O[C@@H](C)[C@H](O[C@@H]4OC[C@@H](O)[C@H](O[C@@H]5O[C@H](CO)[C@@H](O)[C@H](O)[C@H]5O)[C@H]4O)[C@@H](O)[C@H]3O)[C@H](OC(=O)[C@]34CCC(C)(C)C[C@H]3C3=CC[C@@H]5[C@@]6(C)CC[C@H](O[C@@H]7O[C@H](C(=O)O)[C@@H](O)[C@H](O[C@@H]8OC[C@@H](O)[C@H](O)[C@H]8O)[C@H]7O[C@@H]7O[C@H](CO)[C@H](O)[C@H](O)[C@H]7O)[C@@](C)(C=O)[C@@H]6CC[C@@]5(C)[C@]3(C)C[C@H]4O)O[C@@H]2C)O[C@@H]1C` [SO1861], the IC50 (A2058 cells; +50 pM VHH-CD71-dianthin (fixed)) was 200 nM, the IC50 cell killing (A2058 cells; [1]) was “no activity” and the IC50 (MDA-MB-468 cells; [2]) was 200 nM. The IC50 (MDA-MB-468 cells; [1]) was 300 nM, the IC50 cell killing (MDA-MB-468 cells; [3]) was “no enhanced activity compared to SO1861alone” and the IC50 (SK-BR-3 cells; +1.5 pM EGF-dianthin (fixed), Ex.9/Table A6: calculated on concentration SO1861) was 800 nM. The IC50 (SK-BR-3 cells; +10 pM EGF-dianthin (fixed), Table A6: calculated on concentration SO1861) was 650 nM, the IC50 (SK-BR-3 cells; [2]) was 200 nM and the IC50 (SK-BR-3 cells; [1]) was 700 nM. The IC50 (SK-BR-3 cells; [3]) was 200 nM, the IC50 (CaSki cells; +10 pM cetuximab-saporin (fixed), calculated on concentration SO1861) was 700 nM and the IC50 (CaSki cells; +50 pM trastuzumab-saporin (fixed), Ex.9/Table A6: calculated on concentration SO1861) was no less than 1000 nM. The “SO1861 function with endosomal acidification inhibitors” value (endosomal acidification) was “function is reduced when acidification of endosomes is blocked”.

Saporin showed an IC50 (CaSki cells; +1500 nM SO1861 (unconjugated)) of 0.015 nM, an IC50 (HeLa cells) of 0.03 nM and an IC50 (JIMT-1 cells) of 0.03 nM.

In the case of “cetuximab-saporin (monoclonal antibody recognizing and binding EGFR, conjugated to the protein toxin, saporin)”, the cell killing (MTS) on MDA-MB-468 cells (EGFR++), cetuximab-saporin alone, IC50 (human EGFR (human)) is reported as 0.3 nM.
